What all share (type): biochemical
The target in experiment [1] is T1, recombinant human PKG1-beta (Homo sapiens, UniProt Q13976).
T1 construct: PKG1-beta (full-length, with N-terminal His-tag); His-tag (N); purchased Millipore GmbH, Schwalbach, Germany
T1 sequence (Q13976 1-686 isoform Q13976-2): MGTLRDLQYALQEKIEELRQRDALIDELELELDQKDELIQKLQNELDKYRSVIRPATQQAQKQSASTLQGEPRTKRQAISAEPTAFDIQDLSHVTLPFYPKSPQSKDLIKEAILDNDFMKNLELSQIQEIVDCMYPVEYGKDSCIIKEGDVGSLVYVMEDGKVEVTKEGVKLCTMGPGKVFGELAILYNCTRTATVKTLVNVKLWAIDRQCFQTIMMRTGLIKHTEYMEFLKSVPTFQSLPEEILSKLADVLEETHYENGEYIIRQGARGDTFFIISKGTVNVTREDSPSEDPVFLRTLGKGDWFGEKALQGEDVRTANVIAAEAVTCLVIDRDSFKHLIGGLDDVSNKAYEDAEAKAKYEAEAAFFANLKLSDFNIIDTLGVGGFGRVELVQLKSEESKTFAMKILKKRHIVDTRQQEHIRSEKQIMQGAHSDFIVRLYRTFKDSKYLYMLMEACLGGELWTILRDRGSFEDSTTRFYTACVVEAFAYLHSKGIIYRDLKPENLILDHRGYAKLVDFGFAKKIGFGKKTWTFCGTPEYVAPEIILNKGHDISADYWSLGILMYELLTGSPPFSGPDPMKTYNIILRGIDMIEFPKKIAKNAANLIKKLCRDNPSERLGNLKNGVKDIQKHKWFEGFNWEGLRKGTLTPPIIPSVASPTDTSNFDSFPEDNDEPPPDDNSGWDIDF
Put plainly: Determination of Protein Kinase G inhibition (selectivity). The conditions noted are these: from IC50 values. The method, then: (§1) 2) Determination of Protein Kinase a and Protein Kinase G Inhibition
(§2) To measure PKA and PKG1-beta inhibition, IC50 values were determined according to the following protocol:
(§3) Active recombinant human PKG1-beta (full-length, with N-terminal His-tag) was purchased from Millipore GmbH, Schwalbach, Germany. Active recombinant human PKA (residues 1-351, N-terminal His-tag) was obtained from Invitrogen, Karlsruhe, Germany. The peptide substrate, Fluorescein-[…]-COOH, was obtained from JPT Peptide Technologies, Berlin, Germany. Adenosine-5′-triphosphate (ATP), bovine serum albumine (BSA), dimethylsulphoxide (DMSO), 4-(2-Hydroxyethyl)piperazine-1-ethanesulfonic acid (Hepes), Brij-35, dithiothreitol (DTT) and Pluronic F-68 were purchased from Sigma-Aldrich, Munich, Germany. Tris(hydroxymethyl)-aminomethane (Tris), magnesium chloride, NaOH, 1M HCl and EDTA were obtained from Merck Biosciences, Darmstadt, Germany. “Complete” protease inhibitor was from Roche Diagnostics, Mannheim, Germany. Test compounds were diluted to the appropriate concentrations in buffer 1 (25 mM Tris-HCl, pH 7.4, 5 mM MgCl2, 2 mM DTT, 0.02% (w/v) BSA, 0.01% Pluronic F-68 and 3% DMSO). PKG1-beta and PKA were diluted to concentrations of 150 ng/ml and 30 ng/ml, respectively, in buffer 2. The peptide substrate and ATP were diluted to concentrations of 3 μM and 120 μM, respectively, in the buffer 2. Two μl of the compound solution were mixed with 2 μl of the diluted enzyme in a 384-well small volume microtiter plate (Greiner, Bio-One, Frickenhausen, Germany), and the kinase reaction was initiated by addition of 2 μl of the solution containing peptide substrate and ATP. After 60 min incubation at 32° C., the reaction was stopped by addition of 20 μl of a solution containing 100 mM Hepes-NaOH, pH 7.4, 0.015% (v/v) Brij-35, 45 mM EDTA and 0.227% chip coating reagent 1 (Caliper Lifescience Inc, Hopkinton, Mass.). Phosphorylation of the substrate peptide was then detected on a Caliper 3000 instrument essentially as described by Pommereau et al (J. Biomol. Screening 9(5), 409-416, 2004). Separation conditions were as follows: Pressure −1.3 psi, upstream voltage −1562 V, downstream voltage −500 V, sample sip time 200 ms, Positive controls (buffer 1 instead of compound) and negative controls (buffer 1 instead of compound and buffer 2 instead of kinase solution) were run in parallel on each plate. The following products/compounds were tested in said assay by using the respective form (salt or free base) obtained as in the examples described above and the following activities were measured.

The target of experiment [2] is T2, human recombinant ROCK II (Homo sapiens, UniProt O75116).
T2 construct: recombinant human ROCK-II residues 11-552; His6 (N); purchased Millipore GmbH, Schwalbach, Germany
T2 sequence (O75116 11-552): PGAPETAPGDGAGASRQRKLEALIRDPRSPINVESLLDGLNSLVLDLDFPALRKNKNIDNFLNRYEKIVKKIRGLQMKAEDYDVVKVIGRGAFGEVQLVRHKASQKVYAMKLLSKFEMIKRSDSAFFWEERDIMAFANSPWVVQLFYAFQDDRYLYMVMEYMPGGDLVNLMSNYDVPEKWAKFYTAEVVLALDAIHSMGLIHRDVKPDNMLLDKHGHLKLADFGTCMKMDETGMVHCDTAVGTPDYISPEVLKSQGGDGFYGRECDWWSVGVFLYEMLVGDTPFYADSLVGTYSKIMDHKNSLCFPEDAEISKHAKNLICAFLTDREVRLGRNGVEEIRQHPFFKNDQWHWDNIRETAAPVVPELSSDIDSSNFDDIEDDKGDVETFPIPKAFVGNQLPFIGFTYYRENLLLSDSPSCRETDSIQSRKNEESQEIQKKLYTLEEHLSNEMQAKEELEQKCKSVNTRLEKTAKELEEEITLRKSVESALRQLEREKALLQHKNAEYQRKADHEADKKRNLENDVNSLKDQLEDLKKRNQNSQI
Briefly: Determination of Rho kinase inhibition (ROCK II, Caliper peptide phosphorylation assay). The conditions noted are these: respective form (salt or free base) as obtained in the examples, 60 min at 32° C. In outline:
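Enzyme: active N-terminal His6-tagged recombinant human ROCK-II, residues 11-552. Substrate: a fluorescein-labelled peptide, with ATP. IC50 values were determined.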

For experiment [3], the target named is T3, recombinant human PKA (Homo sapiens, UniProt P17612).
T3 construct: recombinant human PKA (residues 1-351, N-terminal His-tag); His-tag (N); purchased Invitrogen, Karlsruhe, Germany
Briefly: Determination of Protein Kinase A inhibition (selectivity). Conditions: from IC50 values. The method, then: as §1, §2, §3

Structures are written as SMILES. A value given as a limit tells only on which side of the number the result lay.

Usually IC50 stands for the concentration that inhibits the measured activity by half.

With `CCC(N)C1(Cc2ccccc2)CCC(Oc2cc3cc[nH]c(=O)c3cc2Cl)CC1` (single isomer, unassigned) [Example 30, 6-[4-(1-Amino-propyl)-4-benzyl-cyclohexyloxy]-7-chloro-2H-isoquinolin-1-one], the “Selectivity against PKG” value in experiment [1] is on record as more than 10 fold. For the same molecule, the IC50 in experiment [2] is 10 to 100 nM. Besides, in experiment [3], the “Selectivity against PKA” value is more than 300 fold.
With `CCCC[C@]1(C(N)CC)CC[C@@H](Oc2cc3cc[nH]c(=O)c3cc2Cl)CC1` (stereo partly drawn) [Example 38, cis-6-[4-(1-Amino-propyl)-4-butyl-cyclohexyloxy]-7-chloro-2H-isoquinolin-1-one], in experiment [1], the “Selectivity against PKG” value was more than 300 fold. In addition, in experiment [2], the IC50 was not above 10 nM. Further, the “Selectivity against PKA” value in experiment [3] is listed as more than 1000 fold.
With `C[C@]1(C(N)c2ccccc2)CC[C@@H](Oc2cc3cc[nH]c(=O)c3cc2Cl)CC1` (stereo partly drawn) [Example 61, cis-6-[4-(Amino-phenyl-methyl)-4-methyl-cyclohexyloxy]-7-chloro-2H-isoquinolin-1-one], in experiment [1], the “Selectivity against PKG” value is listed as more than 300 fold. The IC50 in experiment [2] is 10 to 100 nM. In addition, the “Selectivity against PKA” value in experiment [3] is recorded as more than 100 fold.
Turning to `CCCC(N)[C@]1(C(C)C)CC[C@H](Oc2cc3cc[nH]c(=O)c3cc2Cl)CC1` (stereo partly drawn) [Example 35, cis-6-[4-(1-Amino-butyl)-4-isopropyl-cyclohexyloxy]-7-chloro-2H-isoquinolin-1-one], the “Selectivity against PKG” value in experiment [1] is reported as more than 10 fold. Also, in experiment [2], the concentration for half-maximal inhibition (IC50) is 10 to 100 nM. For the same molecule, in experiment [3], the “Selectivity against PKA” value is more than 300 fold.
For `CCC(N)[C@]1(C2CCSCC2)CC[C@H](Oc2cc3cc[nH]c(=O)c3cc2Cl)CC1` (stereo partly drawn) [Example 76, cis-6-[4-(1-Amino-propyl)-4-(tetrahydro-thiopyran-4-yl)-cyclohexyloxy]-7-chloro-2H-isoquinolin-1-one], the “Selectivity against PKG” value in experiment [1] was more than 1000 fold. The IC50 in experiment [2] is not above 10 nM. In experiment [3], the “Selectivity against PKA” value is reported as more than 1000 fold.
Regarding `CC[C@]1(C(C)N)CC[C@@H](Oc2cc3cc[nH]c(=O)c3cc2F)CC1` (stereo partly drawn) [Example 78, cis-6-[4-(1-Amino-ethyl)-4-ethyl-cyclohexyloxy]-7-fluoro-2H-isoquinolin-1-one], the “Selectivity against PKG” value in experiment [1] is reported as more than 100 fold. For the same molecule, the IC50 in experiment [2] is 10 to 100 nM. Moreover, the “Selectivity against PKA” value in experiment [3] is more than 300 fold.
On to `CCC(N)C1(C(C)C)CCC(Oc2cc3cc[nH]c(=O)c3cc2Cl)CC1` (single isomer, unassigned) [Example 8, 6-[4-(1-Amino-propyl)-4-isopropyl-cyclohexyloxy]-7-chloro-2H-isoquinolin-1-one], for which, in experiment [1], the “Selectivity against PKG” value was more than 100 fold. The half-maximal inhibitory concentration (IC50) in experiment [2] was not above 10 nM. For the same molecule, the “Selectivity against PKA” value in experiment [3] is on record as more than 100 fold.
As for `CCC(N)C1(C(F)(F)F)CCC(Oc2cc3cc[nH]c(=O)c3cc2Cl)CC1` (single isomer, unassigned) [Example 103, 6-[4-(1-Amino-propyl)-4-trifluoromethyl-cyclohexyloxy]-7-chloro-2H-isoquinolin-1-one], the “Selectivity against PKG” value in experiment [1] was more than 1000 fold. In addition, the half-inhibitory concentration (IC50) in experiment [2] was not above 10 nM. Also, in experiment [3], the “Selectivity against PKA” value is more than 1000 fold.
Take `CC(C)C1(C(N)c2cncs2)CCC(Oc2cc3cc[nH]c(=O)c3cc2Cl)CC1` (single isomer, unassigned) [Example 47, 6-[4-(Amino-thiazol-5-yl-methyl)-4-isopropyl-cyclohexyl-oxy]-7-chloro-2H-isoquinolin-1-one]: the “Selectivity against PKG” value in experiment [1] is recorded as more than 300 fold. In addition, the 50% inhibitory concentration (IC50) in experiment [2] is 10 to 100 nM. Besides, the “Selectivity against PKA” value in experiment [3] is on record as more than 300 fold.
Turning to `CCC(N)[C@]1(C(C)C)CC[C@H](Oc2cc3c(F)c[nH]c(=O)c3cc2Cl)CC1` (stereo partly drawn) [Example 90, cis-6-[4-(1-Amino-propyl)-4-isopropyl-cyclohexyloxy]-7-chloro-4-fluoro-2H-isoquinolin-1-one], the “Selectivity against PKG” value in experiment [1] is reported as more than 100 fold. In addition, in experiment [2], the IC50 is 10 to 100 nM. In addition, in experiment [3], the “Selectivity against PKA” value is more than 300 fold.
Take `CCCC1(C(N)C2CC2)CCC(Oc2cc3cc[nH]c(=O)c3cc2Cl)CC1` (single isomer, unassigned) [Example 6, 6-[4-(Amino-cyclopropyl-methyl)-4-propyl-cyclohexyloxy]-7-chloro-2H-isoquinolin-1-one]: the “Selectivity against PKG” value in experiment [1] is more than 1000 fold. For the same molecule, the 50% inhibitory concentration (IC50) in experiment [2] is not above 10 nM. Besides, the “Selectivity against PKA” value in experiment [3] is reported as more than 1000 fold.
On to `CCC(N)C1(C)CCC(Oc2cc3cc[nH]c(=O)c3cc2Cl)CC1` (single isomer, unassigned) [Example 27, 6-[4-(1-Amino-propyl)-4-methyl-cyclohexyloxy]-7-chloro-2H-isoquinolin-1-one], for which, in experiment [1], the “Selectivity against PKG” value is on record as more than 1000 fold. In addition, the IC50 in experiment [2] is 10 to 100 nM. Besides, the “Selectivity against PKA” value in experiment [3] is more than 1000 fold.
Consider `CCC(N)C1(CC2CC2)CCC(Oc2cc3cc[nH]c(=O)c3cc2Cl)CC1` (single isomer, unassigned) [Example 12, 6-[4-(1-Amino-propyl)-4-cyclopropyl-methyl-cyclohexyl-oxy]-7-chloro-2H-isoquinolin-1-one], for which the “Selectivity against PKG” value in experiment [1] was more than 300 fold. The IC50 in experiment [2] is not above 10 nM. For the same molecule, the “Selectivity against PKA” value in experiment [3] is more than 1000 fold.
For `CCC(N)C1(CC2CC2)CCC(Oc2cc3cc[nH]c(=O)c3cc2Cl)CC1` (single isomer, unassigned) [Example 13, 6-[4-(1-Amino-propyl)-4-cyclopropyl-methyl-cyclohexyl-oxy]-7-chloro-2H-isoquinolin-1-one], in that order: more than 10 fold, 10 to 100 nM and more than 10 fold.
With `CCC(N)[C@]1(CC)CC[C@H](Oc2c(C)cc3c(=O)[nH]ccc3c2C)CC1` (stereo partly drawn) [Example 54, cis-6-[4-(1-Amino-propyl)-4-ethyl-cyclohexyloxy]-5,7-dimethyl-2H-isoquinolin-1-one], the “Selectivity against PKG” value in experiment [1] was more than 10 fold. For the same molecule, in experiment [2], the IC50 was 100 to 1000 nM. Besides, the “Selectivity against PKA” value in experiment [3] was more than 10 fold.
Take `CC(N)C1(CC2CC2)CCC(Oc2cc3cc[nH]c(=O)c3cc2Cl)CC1` (single isomer, unassigned) [Example 10, 6-[4-(1-Amino-ethyl)-4-cyclopropylmethyl-cyclohexyloxy]-7-chloro-2H-isoquinolin-1-one]: the “Selectivity against PKG” value in experiment [1] is listed as more than 300 fold. Also, the half-maximal inhibitory concentration (IC50) in experiment [2] is not above 10 nM. Moreover, the “Selectivity against PKA” value in experiment [3] is more than 1000 fold.
On the same counts, the results for `CCC(N)[C@]1(C2CCS(=O)(=O)CC2)CC[C@H](Oc2cc3cc[nH]c(=O)c3cc2Cl)CC1` (stereo partly drawn) [Example 99, cis-6-[4-(1-amino-propyl)-4-(1,1-dioxo-tetrahydrothiopyran-4-yl)-cyclohexyloxy]-7-chloro-2H-isoquinolin-1-one] are more than 300 fold, not above 10 nM and more than 1000 fold.

The record behind these values is patent publication US8399482B2, “6-substituted isoquinolines and isoquinolinones” (Sanofi, priority 2008, dated 2013).
